Broadly, the IC50 is the point on the concentration scale where inhibition reaches its midpoint. Usually Ki stands for the equilibrium dissociation constant of an inhibitor or competing ligand from its target. The term LD50 denotes the dose expected to kill half of the subjects tested. Usually inhibition stands for the percentage by which the read-out fell short of the control.

The values that follow come from ChEMBL document CHEMBL5537123, “Discovery of triazole tethered thymol/carvacrol-coumarin hybrids as new class of α-glucosidase inhibitors with potent in vivo antihyperglycemic activities” (Eur J Med Chem, 2024).

Series [1] concerns the target T1, Alpha-glucosidase (Saccharomyces cerevisiae S288c, UniProt P53341+P38158+P07265). The series can be described thus: Inhibition of Saccharomyces cerevisiae alpha-glucosidase using pNPG as substrate preincubated with compound for 20 mins followed by substrate addition measured after 1 hrs by absorbance based analysis. Format: protein assay.
A further series has as its target T2, Alpha-amylase (Sus scrofa domesticus, UniProt Q7M328).
T2 sequence (Q7M328 whole entry): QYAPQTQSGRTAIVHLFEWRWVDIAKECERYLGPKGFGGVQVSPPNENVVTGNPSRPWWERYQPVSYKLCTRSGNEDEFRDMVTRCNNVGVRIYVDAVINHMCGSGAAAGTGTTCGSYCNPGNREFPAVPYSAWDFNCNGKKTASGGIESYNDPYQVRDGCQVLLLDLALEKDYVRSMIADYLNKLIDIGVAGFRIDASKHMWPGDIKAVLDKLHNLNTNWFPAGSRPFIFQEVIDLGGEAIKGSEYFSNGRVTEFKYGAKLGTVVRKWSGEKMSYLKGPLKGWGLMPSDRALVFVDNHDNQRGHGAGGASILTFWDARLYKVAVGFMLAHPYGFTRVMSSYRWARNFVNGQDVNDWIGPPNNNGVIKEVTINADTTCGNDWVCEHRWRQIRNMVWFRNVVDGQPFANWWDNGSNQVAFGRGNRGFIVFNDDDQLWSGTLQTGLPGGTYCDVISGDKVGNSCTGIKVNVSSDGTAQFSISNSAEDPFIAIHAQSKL
The series can be described thus: Inhibition of porcine pancreatic alpha-amylase using pNPG as substrate preincubated with compound for 20 mins followed by substrate addition measured after 1 hrs by absorbance based analysis.

Series [2] is described as follows: Cytotoxicity against mouse L929 cells assessed reduction in cell viability incubated for 24 hrs by MTT assay. The class given is toxicity, cell-based.
The nature of series [3]: Selectivity index, ratio of IC50 for inhibition of porcine pancreatic alpha-amylase using pNPG as substrate to IC50 for inhibition of Saccharomyces cerevisiae alpha-glucosidase using pNPG as substrate.
Series [4] deals with T1, Alpha-glucosidase. The series can be described thus: Mixed type inhibition of Saccharomyces cerevisiae alpha-glucosidase using pNPG as substrate assessed as inhibition constant preincubated for 20 mins followed by substrate addition measured after 1 hrs by Lineweaver-burk plot analysis. The class given is protein assay.
Series [5] in a line: Acute toxicity in Wistar rat assessed as change in salivation at 300 mg/kg, po measured for 14 days. The class given is organism-based. To be noted: in vivo, 336 h, time 14 day.
The nature of series [6]: Acute toxicity in Wistar rat assessed as change in salivation at 50 mg/kg, po measured for 14 days. Format: organism-based. The note with it: in vivo, 336 h, time 14 day.
Series [7] in a line: Acute toxicity in Wistar rat assessed as change in salivation at 5 mg/kg, po measured for 14 days. Format: organism-based. To be noted: in vivo, 336 h, time 14 day.
The nature of series [8]: Acute toxicity in Wistar rat assessed as lethal dose measured for 14 days. To be noted: in vivo, time 14 day.
A short description of series [9]: Acute toxicity in Wistar rat assessed as mortality rate at 300 mg/kg, po measured for 14 days. The note with it: in vivo, time 14 day, read-out: Activity. The class given is organism-based.
Series [10] relates to Rattus norvegicus. The series can be described thus: Hypoglycemic activity in streptozotocin-induced diabetic Wistar rat model assessed as decrease in blood glucose level at 5 to 20 mg/kg, po administered for 5 days and measured after 30 mins by glucometer analysis. The class given is functional, organism-based. The note with it: dose 5-20 mg/kg, time 7230.0 min.
For series [11], the system named is Rattus norvegicus. The experiment in a line: Hypoglycemic activity in streptozotocin-induced diabetic Wistar rat model assessed as decrease in blood glucose level at 5 mg/kg, po administered for 5 days and measured after 1 hr by maltose loading test relative to control. Format: functional. Further details: scale not given: the % may be the effect or the level left. To be noted: time 121 hrs.

For series [12], the system named is Rattus norvegicus. The experiment in a line: Hypoglycemic activity in streptozotocin-induced diabetic Wistar rat model assessed as decrease in blood glucose level at 10 mg/kg, po administered for 5 days and measured after 1 hr by maltose loading test relative to control. The class given is functional. Set-up: scale not given: the % may be the effect or the level left. To be noted: time 121 hrs.

Series [13] deals with Rattus norvegicus. The experiment in a line: Hypoglycemic activity in streptozotocin-induced diabetic Wistar rat model assessed as decrease in blood glucose level at 20 mg/kg, po administered for 5 days and measured after 1 hr by maltose loading test relative to control. The class given is functional. Further details: scale not given: the % may be the effect or the level left. The note with it: time 121 hrs.

Series [14] deals with Rattus norvegicus. The series can be described thus: Hypoglycemic activity in streptozotocin-induced diabetic Wistar rat model assessed as decrease in blood glucose level at 5 mg/kg, po administered for 5 days and measured after 1 hr by sucrose loading test relative to control. The class given is functional. Further details: scale not given: the % may be the effect or the level left. To be noted: time 121 hrs.

For series [15], the system named is Rattus norvegicus. The experiment in a line: Hypoglycemic activity in streptozotocin-induced diabetic Wistar rat model assessed as decrease in blood glucose level at 10 mg/kg, po administered for 5 days and measured after 1 hr by sucrose loading test relative to control. The class given is functional. Further details: scale not given: the % may be the effect or the level left. The note with it: time 121 hrs.

The subject of series [16] is Rattus norvegicus. The series can be described thus: Hypoglycemic activity in streptozotocin-induced diabetic Wistar rat model assessed as decrease in blood glucose level at 20 mg/kg, po administered for 5 days and measured after 1 hr by sucrose loading test relative to control. The class given is functional. Set-up: scale not given: the % may be the effect or the level left. To be noted: time 121 hrs.

In series [17] the test system is Rattus norvegicus. The experiment in a line: Hypoglycemic activity in streptozotocin-induced diabetic Wistar rat model assessed as reduction in fasting blood glucose level at 10 mg/kg, po measured every 7 days for 28 days relative to control. Format: functional. Further details: scale not given: the % may be the effect or the level left. To be noted: time 7 day.

Series [18] relates to Rattus norvegicus. The series can be described thus: Hypoglycemic activity in streptozotocin-induced diabetic Wistar rat model assessed as reduction in fasting blood glucose level at 20 mg/kg, po measured every 7 days for 28 days relative to control. The class given is functional. To be noted: time 7 day. Further details: scale not given: the % may be the effect or the level left.

A short description of series [19]: Toxicity in Wistar rat assessed as effect on body weight at 20 mg/kg, po measured for 28 days. The class given is organism-based. To be noted: in vivo, 672 h, time 28 day.
For the next series, the system named is Origanum vulgare. The experiment in a line: Inhibition of Origanum vulgare alpha-glucosidase at 18 microg/ml relative to control. The note with it: dose 18.0 µg/ml.
A short description of series [20]: Inhibition of alpha-glucosidase (unknown origin). Set-up: species or system Homo sapiens.

The source made the active and inactive calls. The calls are words filed in the database; no cut-off is given here. Where only a bound is given, the exact number is not on record here.

Turning to `Cc1ccc(C(C)C)cc1OCc1cn(CCCOc2cc(=O)oc3ccccc23)nn1`, the half-inhibitory concentration (IC50) on Alpha-glucosidase [1] was 68.51 µM; at Alpha-amylase, above 100 µM.
Taken in the same sequence, the figures for `Cc1ccc(C(C)C)cc1OCc1cn(CCCCCOc2ccc3ccc(=O)oc3c2)nn1` were above 100 µM and above 100 µM.
Taken in the same sequence, the figures for `Cc1ccc(C(C)C)cc1OCc1cn(CCCOc2ccc3ccc(=O)oc3c2)nn1` were above 100 µM and above 100 µM.
For `Cc1ccc(C(C)C)c(OCc2cn(CCCOc3ccc4ccc(=O)oc4c3)nn2)c1`, the figures for the IC50 at Alpha-glucosidase [1] and at Alpha-amylase were 72.91 µM and above 100 µM, respectively.
As for `Cc1ccc(C(C)C)cc1OCc1cn(CCOc2ccc3ccc(=O)oc3c2)nn1`, the concentration for half-maximal inhibition (IC50) on Alpha-glucosidase [1] is 64.21 µM; on Alpha-amylase, above 100 µM.
`Cc1ccc(C(C)C)cc1OCc1cn(CCCCCCOc2cc(=O)oc3ccccc23)nn1`: the IC50 stood at 9.23 µM on Alpha-glucosidase [1] and 69.3 µM on Alpha-amylase. In series [2], this compound had an IC50 at 24 h above 100 µM. The Ratio IC50 in [3] was 7.51.
For the compound `Cc1ccc(C(C)C)cc1OCc1cn(CCCCCOc2cc(=O)oc3ccccc23)nn1`, the concentration for half-maximal inhibition (IC50) at Alpha-glucosidase [1] turned out to be 4.32 µM; at Alpha-amylase, 37.4 µM. This compound came in with an IC50 at 24 h in [2] above 100 µM. Moreover, the Ratio IC50 in series [3] was 8.65. The Ki at Alpha-glucosidase [4] was determined as 0.832 µM. The Activity result in [5] is given as “Non-Toxic”; in series [6] it was “Non-Toxic”; in series [7], “Non-Toxic”; with Rattus norvegicus [11] it was 28.91%; with Rattus norvegicus [12], 62.65%; in the series on Rattus norvegicus [13], 70.12%. The Activity with Rattus norvegicus [14] is 25.24%; in the series on Rattus norvegicus [15] it was 59.65%; in the series with Rattus norvegicus [16] it was 60.23%; with Rattus norvegicus [17], 54.69%; in the series with Rattus norvegicus [18], 62.23%; in series [19], “Non-Toxic”. Besides, the LD50 at 336 h in series [8] was 300 mg/kg. Besides, in series [9], the mortality at 336 h is 67%. The outcome in the series with Rattus norvegicus [10] was Active.
Turning to `Cc1ccc(C(C)C)c(OCc2cn(CCOc3cc(=O)oc4ccccc34)nn2)c1`, the 50% inhibitory concentration (IC50) at Alpha-glucosidase [1] was 61.24 µM; at Alpha-amylase, above 100 µM.
Taken in the same sequence, the figures for `Cc1ccc(C(C)C)cc1OCc1cn(CCOc2cc(=O)oc3ccccc23)nn1` were 78.69 µM and above 100 µM.
`Cc1ccc(C(C)C)cc1OS(=O)(=O)c1ccc(F)cc1` returned an inhibition in the series with Origanum vulgare of 57.7%. In [20], the IC50 worked out at 2560 nM.
For `C[C@H]1O[C@H](O[C@H]2[C@H](O)[C@@H](O)[C@@H](O[C@H]3[C@H](O)[C@@H](O)C(O)O[C@@H]3CO)O[C@@H]2CO)[C@H](O)[C@@H](O)[C@@H]1N[C@H]1C=C(CO)[C@@H](O)[C@H](O)[C@H]1O` (some centres not stated) [ACARBOSE], the Activity is given as 53.01% in the series with Rattus norvegicus [12], 56.31% in the series with Rattus norvegicus [15] and 25.86% with Rattus norvegicus [17].
`Cc1ccc(C(C)C)cc1OCc1cn(CCCCCCOc2ccc3ccc(=O)oc3c2)nn1`: the IC50 at Alpha-glucosidase [1] and at Alpha-amylase was above 100 µM throughout.
As for `Cc1ccc(C(C)C)c(OCc2cn(CCCCCOc3ccc4ccc(=O)oc4c3)nn2)c1`, the 50% inhibitory concentration (IC50) at Alpha-glucosidase [1] and on Alpha-amylase was above 100 µM throughout.
In the case of `Cc1ccc(C(C)C)c(OCc2cn(CCCCCOc3cc(=O)oc4ccccc34)nn2)c1`, the half-maximal inhibitory concentration (IC50) stood at 7.53 µM at Alpha-glucosidase [1] and 57.3 µM on Alpha-amylase. The IC50 at 24 h in [2] was above 100 µM. The Ratio IC50 in series [3] stood at 7.61.
Regarding `Cc1ccc(C(C)C)c(OS(=O)(=O)c2ccc(F)cc2)c1`, the inhibition in the series on Origanum vulgare is 57.7%. In addition, in series [20], the IC50 was 2300 nM.
As to `Cc1ccc(C(C)C)c(OCc2cn(CCOc3ccc4ccc(=O)oc4c3)nn2)c1`, the half-maximal inhibitory concentration (IC50) at Alpha-glucosidase [1] is 56.41 µM; on Alpha-amylase it was above 100 µM.
`Cc1ccc(C(C)C)c(OCc2cn(CCCCOc3cc(=O)oc4ccccc34)nn2)c1`: the figures for the half-maximal inhibitory concentration (IC50) at Alpha-glucosidase [1] and on Alpha-amylase were 25.36 µM and 77.5 µM, respectively. For the same compound, the Ratio IC50 in series [3] was 3.06.
On to `Cc1ccc(CNC(=O)Cn2cc(COc3cc(=O)oc4ccccc34)nn2)cc1`, for which, in series [20], the IC50 amounted to 3500 nM.
Regarding `Cc1ccc(C(C)C)cc1OCc1cn(CCCCOc2ccc3ccc(=O)oc3c2)nn1`, the IC50 at Alpha-glucosidase [1] and on Alpha-amylase was above 100 µM each time.
Compound `O=C(Cn1cc(COc2ccc3ccc(=O)oc3c2)nn1)NCc1cccc(Br)c1` registered an IC50 in [20] of 543 nM.
Consider `Cc1ccc(C(C)C)c(OCc2cn(CCCCCCOc3ccc4ccc(=O)oc4c3)nn2)c1`, for which the half-maximal inhibitory concentration (IC50) on Alpha-glucosidase [1] and at Alpha-amylase was above 100 µM throughout.
Consider `Cc1ccc(C(C)C)c(OCc2cn(CCCCOc3ccc4ccc(=O)oc4c3)nn2)c1`, for which the IC50 on Alpha-glucosidase [1] and at Alpha-amylase was above 100 µM each time.
As to `Cc1ccc(C(C)C)cc1OCc1cn(CCCCOc2cc(=O)oc3ccccc23)nn1`, the figures for the IC50 at Alpha-glucosidase [1] and at Alpha-amylase were 26.48 µM and above 100 µM, respectively.
Taken in the same sequence, the figures for `Cc1ccc(C(C)C)c(OCc2cn(CCCOc3cc(=O)oc4ccccc34)nn2)c1` were 37.59 µM and above 100 µM.
Taken in the same sequence, the figures for `Cc1ccc(C(C)C)c(OCc2cn(CCCCCCOc3cc(=O)oc4ccccc34)nn2)c1` were 16.32 µM and above 100 µM.
